Measured values taken from patent publication US9522886B2, “Pyridine derivatives” (Hoffmann-La Roche Inc., priority 2012, dated 2016).
Read-outs that look alike come from different tables or passages of the source.

Experiments:
human CB2 receptors = human CB2 receptors (Homo sapiens (Human), UniProt P34972); experiment: cAMP assay, CHO cells expressing human CB2 receptors; assay type: cell-based
human CB1 receptors = human CB1 receptors (Homo sapiens (Human), UniProt P21554); experiment: cAMP assay, CHO cells expressing human CB1 receptors; assay type: cell-based
[1] = functional cAMP assay, CHO cells expressing human CB2, read-out: human CB2 EC50
[2] = functional cAMP assay, CHO cells expressing human CB1, read-out: human CB1 EC50

Chain of human CB2 receptors (P34972 whole entry): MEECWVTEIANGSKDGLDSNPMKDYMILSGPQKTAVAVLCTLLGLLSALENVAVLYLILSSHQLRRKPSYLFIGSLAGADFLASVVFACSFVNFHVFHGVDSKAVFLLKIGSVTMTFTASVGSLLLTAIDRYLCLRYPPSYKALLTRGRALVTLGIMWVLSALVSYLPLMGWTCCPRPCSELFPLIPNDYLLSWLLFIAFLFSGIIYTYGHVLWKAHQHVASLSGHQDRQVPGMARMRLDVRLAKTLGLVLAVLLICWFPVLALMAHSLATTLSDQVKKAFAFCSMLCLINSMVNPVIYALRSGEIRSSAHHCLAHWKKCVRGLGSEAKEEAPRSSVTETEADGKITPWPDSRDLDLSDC
Chain of human CB1 receptors (P21554 whole entry): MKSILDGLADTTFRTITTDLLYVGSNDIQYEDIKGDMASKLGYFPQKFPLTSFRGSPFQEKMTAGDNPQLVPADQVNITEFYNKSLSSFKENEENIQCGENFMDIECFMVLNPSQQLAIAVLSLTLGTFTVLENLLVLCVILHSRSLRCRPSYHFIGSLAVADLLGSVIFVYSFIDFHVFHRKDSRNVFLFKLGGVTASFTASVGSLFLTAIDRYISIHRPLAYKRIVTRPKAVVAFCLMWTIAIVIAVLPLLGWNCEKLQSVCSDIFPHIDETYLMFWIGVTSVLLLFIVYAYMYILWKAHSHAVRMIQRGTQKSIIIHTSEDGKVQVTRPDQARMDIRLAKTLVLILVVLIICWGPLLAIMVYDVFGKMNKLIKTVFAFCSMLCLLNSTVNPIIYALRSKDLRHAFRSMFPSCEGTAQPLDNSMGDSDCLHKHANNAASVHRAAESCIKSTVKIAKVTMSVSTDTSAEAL

| Structure (SMILES) | EC50 (human CB2 receptors; [1]) [nM] | EC50 (human CB1 receptors; [2]) [nM] | EC50 (human CB2 receptors) [nM] | EC50 (human CB1 receptors) [nM] |
| --- | --- | --- | --- | --- |
| NC(=O)CC1(NC(=O)c2ccc(N3CC(F)(F)C3)c(OCC3CC3)n2)CCN(C(=O)OCc2ccccc2)C1 (stereo not drawn) [Example 83, Benzyl 3-(2-amino-2-oxoethyl)-3-[[6-(cyclopropylmethoxy)-5-(3,3-difluoroazetidin-1-yl)pyridine-2-carbonyl]amino]pyrrolidine-1-carboxylate] | 1330 | > 10000 |  |  |
| NC(=O)CC1(NC(=O)c2ccc(N3CC(F)(F)C3)c(OCC3CC3)n2)CCNC1 (stereo not drawn) [Example 84, N-[3-(2-Amino-2-oxoethyl)pyrrolidin-3-yl]-6-(cyclopropylmethoxy)-5-(3,3-difluoroazetidin-1-yl)pyridine-2-carboxamide] | 67.6 | > 10000 |  |  |
| NC(=O)CC1(NC(=O)c2ccc(N3CC(F)(F)C3)c(OCC3CC3)n2)CCNCC1 [Example 85, N-[4-(2-Amino-2-oxoethyl)piperidin-4-yl]-6-(cyclopropylmethoxy)-5-(3,3-difluoroazetidin-1-yl)pyridine-2-carboxamide] | 270 | > 10000 |  |  |
| NC(=O)CC1(NC(=O)c2ccc(C3CC3)c(OCC3CC3)n2)CCNCC1 [Example 86, N-[4-(2-Amino-2-oxoethyl)piperidin-4-yl]-5-cyclopropyl-6-(cyclopropylmethoxy)pyridine-2-carboxamide] | 240 | > 10000 |  |  |
| NC(=O)CC1(NC(=O)c2ccc(C3CC3)c(Cc3ccc(F)cc3)n2)CCOC1 (stereo not drawn) [Example 87, N-[3-(2-Amino-2-oxoethyl)oxolan-3-yl]-5-cyclopropyl-6-[(4-fluorophenyl)methyl]pyridine-2-carboxamide] |  |  | 0.3 | 34.8 |
| NC(=O)CC1(NC(=O)c2ccc(C3CC3)c(OCC3CC3)n2)CCOC1 (stereo not drawn) [Example 88, N-[3-(2-Amino-2-oxoethyl)oxolan-3-yl]-5-cyclopropyl-6-(cyclopropylmethoxy)pyridine-2-carboxamide] | 2 | > 10000 |  |  |
| NC(=O)CC1(NC(=O)c2ccc(C3(F)CCC3)c(OCC3CC3)n2)COC1 [Example 89, N-[3-(2-Amino-2-oxoethyl)oxetan-3-yl]-6-(cyclopropylmethoxy)-5-(1-fluorocyclobutyl)pyridine-2-carboxamide] | 11.9 | > 10000 |  |  |
| NC(=O)CC1(NC(=O)c2ccc(C3(O)CCC3)c(OCC3CC3)n2)COC1 [Example 90, N-[3-(2-Amino-2-oxoethyl)oxetan-3-yl]-6-(cyclopropylmethoxy)-5-(1-hydroxycyclobutyl)pyridine-2-carboxamide] | 8.8 | > 10000 |  |  |
| NC(=O)CC1(NC(=O)c2ccc(C3(O)CCC3)c(OCC3CC3)n2)CS(=O)(=O)C1 [Example 92, N-[3-(2-Amino-2-oxoethyl)-1,1-dioxothietan-3-yl]-6-(cyclopropylmethoxy)-5-(1-hydroxycyclobutyl)pyridine-2-carboxamide] | 2.2 | > 10000 |  |  |
| NC(=O)CC1(NC(=O)c2ccc(C3(F)COC3)c(OCC3CC3)n2)COC1 [Example 93, N-[3-(2-Amino-2-oxoethyl)oxetan-3-yl]-6-(cyclopropylmethoxy)-5-(3-fluorooxetan-3-yl)pyridine-2-carboxamide] | 14.9 | > 10000 |  |  |
| NC(=O)CC1(NC(=O)c2ccc(C3(O)COC3)c(OCC3CC3)n2)COC1 [Example 94, N-[3-(2-Amino-2-oxoethyl)oxetan-3-yl]-6-(cyclopropylmethoxy)-5-(3-hydroxyoxetan-3-yl)pyridine-2-carboxamide] | 251 | > 10000 |  |  |
| NC(=O)CC1(NC(=O)c2ccc(C3(O)CCC3)c(OCC3CC3)n2)CSC1 [Example 95, N-[3-(2-Amino-2-oxoethyl)thietan-3-yl]-6-(cyclopropylmethoxy)-5-(1-hydroxycyclobutyl)pyridine-2-carboxamide] | 1.1 | > 10000 |  |  |
| NC(=O)CC1(NC(=O)c2ccc(C3CC3)c(OCC3CC3)n2)CSC1 [Example 96, N-[3-(2-Amino-2-oxoethyl)thietan-3-yl]-5-cyclopropyl-6-(cyclopropylmethoxy)pyridine-2-carboxamide] | 1.8 | > 10000 |  |  |
| NC(=O)CC1(NC(=O)c2ccc(C(F)(F)F)c(OCC3CC3)n2)CSC1 [Example 97, N-[3-(2-Amino-2-oxoethyl)thietan-3-yl]-6-(cyclopropylmethoxy)-5-(trifluoromethyl)pyridine-2-carboxamide] | 11.5 | > 10000 |  |  |
| NC(=O)CC1(NC(=O)c2ccc(C3(F)COC3)c(OCC3CC3)n2)CSC1 [Example 98, N-[3-(2-Amino-2-oxoethyl)thietan-3-yl]-6-(cyclopropylmethoxy)-5-(3-fluorooxetan-3-yl)pyridine-2-carboxamide] | 1.2 | > 10000 |  |  |
